Here are results for three compounds from patent US9492508B2, “Parathyroid hormone analogs and uses thereof” (The General Hospital Corporation, priority 2010, dated 2016).

Square brackets hold non-standard residues; d marks the D form. Peptide text beside a SMILES is read from it. hArg = N=C(N)NCCCC[C@H](N)C(=O)O; Aib = CC(C)(N)C(=O)O

One data set in a line: in vivo. Conditions: Crl:CD(SD), rat, iv, 24.3 nmol/kg.
The conditions of data set [1]: rat, in vivo, iv, 24.3 nmol/kg.
The nature of data set [2]: Blood Ca++ responses in mice. It is filed as in vivo, mice (C57 BL/6). Conditions: 5 nmol/kg s.c., 4, 6, 8 and 24 hours. How it is done: Blood Ca^++ responses in mice were also assayed. Mice (C57 BL/6) were injected subcutaneously with either vehicle or the indicated ligand to give a final dose of 5 nmol/kg body weight, and blood was withdrawn via the tail at times after injection and assessed for Ca^++ concentration using a Bayer Rapid Lab model 348 blood analyzer. […] A similar experiment using 10 nmol/kg by intravenous injection was also conducted with similar results (FIGS. 8C and 8D).

The next data set addresses T1, human PTHR1 (R0) (Homo sapiens, UniProt Q03431).
T1 construct: expressed in transfected cells; host or cells: COS-7 cells (membranes)
T1 sequence (Q03431 27-593): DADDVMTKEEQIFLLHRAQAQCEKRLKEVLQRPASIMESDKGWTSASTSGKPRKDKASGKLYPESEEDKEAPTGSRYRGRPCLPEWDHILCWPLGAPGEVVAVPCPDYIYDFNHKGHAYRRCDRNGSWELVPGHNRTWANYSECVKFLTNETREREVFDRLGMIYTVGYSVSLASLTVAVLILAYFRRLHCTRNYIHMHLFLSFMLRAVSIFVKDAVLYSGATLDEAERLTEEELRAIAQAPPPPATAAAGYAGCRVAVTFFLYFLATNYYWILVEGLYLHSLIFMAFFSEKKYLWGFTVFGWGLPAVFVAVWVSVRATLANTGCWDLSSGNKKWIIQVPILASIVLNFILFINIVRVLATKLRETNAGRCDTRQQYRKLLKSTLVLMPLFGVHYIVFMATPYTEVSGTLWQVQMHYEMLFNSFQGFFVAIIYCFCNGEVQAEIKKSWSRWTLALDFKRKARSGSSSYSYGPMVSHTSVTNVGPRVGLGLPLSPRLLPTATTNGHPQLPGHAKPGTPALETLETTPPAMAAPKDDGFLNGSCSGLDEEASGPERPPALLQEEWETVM
Briefly: Competition binding, R0 conformation of human PTHR1 (COS-7 membranes, 125I-PTH(1-34) tracer, GTPγS). As to the method:
(§1) Briefly, the R^0 form of the receptor can be favored by addition of the non-hydrolyzable nucleotide analog GTPγS. The RG form can be favored, for example, by co-transfection of cells with a negative dominant Gαs subunit. […] Data are means of four experiments, each performed in duplicate. Curves were fit to the data using Graph-Pad Prism 4.0.
Here, competition binding assays for the R^0 and RG PTHR1 conformation were performed in membranes prepared from transfected COS-7 cells, as described by Dean et al., Mol Endocrinol 22:156-66, 2008. Data are means of three experiments, each performed in duplicate. Curves were fit to the data using Graph-Pad Prism 4.0.

In data set [3] the test system is MC3T3-E1 cells. Briefly: cAMP response following ligand wash-out in MC3T3-E1 cells. Conditions: 100 nM ligand 5 min, then wash-out; FIGS. 7A, 7B. The data set is classed as cell-based, mouse. How it is done: Cells were treated at room temperature with vehicle or the indicated ligand (100 nM) for five minutes; for each ligand duplicate wells were used to obtain the initial (maximum cAMP values); in these wells, cells were co-incubated with ligand and IBMX. After five minutes of initial treatment, the buffer was removed, and, for the initial wells, the reactions were terminated by addition of 50 mM HCl. In the other wells, the cells were rinsed three times with buffer, and incubated in buffer for varying times, as indicated on the abscissa; after which the buffer was replaced by a buffer containing IBMX, and the cells were incubated for another five minutes. After that, the buffer was removed and the reactions were terminated by addition of 50 mM HCl. The cAMP contents of the HCl lysates were then determined by RIA.

A further data set addresses T2, rat PTHR1 (RG) (Rattus norvegicus, UniProt P25961).
T2 construct: expressed in transfected cells
T2 sequence (P25961 27-591): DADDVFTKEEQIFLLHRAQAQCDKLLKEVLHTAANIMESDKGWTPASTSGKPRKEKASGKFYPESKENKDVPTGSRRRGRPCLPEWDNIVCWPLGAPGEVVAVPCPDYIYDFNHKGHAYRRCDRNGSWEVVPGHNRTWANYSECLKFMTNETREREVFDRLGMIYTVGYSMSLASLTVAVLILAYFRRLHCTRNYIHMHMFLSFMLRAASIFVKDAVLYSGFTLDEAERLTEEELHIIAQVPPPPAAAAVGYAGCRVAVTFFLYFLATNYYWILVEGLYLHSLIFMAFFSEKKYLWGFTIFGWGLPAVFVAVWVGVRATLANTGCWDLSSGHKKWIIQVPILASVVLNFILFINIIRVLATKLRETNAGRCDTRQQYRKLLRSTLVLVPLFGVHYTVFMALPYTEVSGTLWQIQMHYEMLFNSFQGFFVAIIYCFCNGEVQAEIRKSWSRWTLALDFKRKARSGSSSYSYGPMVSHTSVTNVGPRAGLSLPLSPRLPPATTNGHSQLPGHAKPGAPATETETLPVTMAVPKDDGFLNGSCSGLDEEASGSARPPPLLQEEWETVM
Kind of data set: Competition binding, RG conformation of rat PTHR1. The note with it: RG conformation; mean of 4 experiments; read-out: Binding rat PTHR1 IC50 (Log M) RG (converted).
From the text: as §1

Data set [4] deals with MC3T3-E1 cells. Briefly: cAMP RIA in intact MC3T3-E1 cells. The data set is classed as cell-based, mouse. Conditions: 30 min, room temperature, IBMX. As to the method: cAMP stimulating activity of these polypeptides was also assessed, using two different methods: a radioimmunoassay (RIA; FIG. 2) and a cAMP responsive element fused to a luciferase gene (FIG. 3). Briefly, the RIA cAMP assays were performed in intact MC3T3-E1 cells, a mouse pre-osteoblastic cell line, in 96-well plates, as described by Okazaki et al. (Proc Natl Acad Sci USA 105:16525-30, 2008). […] The cAMP contents of the HCl lysates were then determined by RIA. Data are means of six experiments, each performed in duplicate. Curves were fit to the data using Graph-Pad Prism 4.0.

In another data set the target is T3, PD PTH receptor (Mus musculus, UniProt P41593, S489A/S491A/S492A/S493A/S495A/S501A/S504A).
T3 construct: endogenous in cells; host or cells: knock-in mice (in vivo)
T3 sequence (P41593 27-591 S489A/S491A/S492A/S493A/S495A/S501A/S504A): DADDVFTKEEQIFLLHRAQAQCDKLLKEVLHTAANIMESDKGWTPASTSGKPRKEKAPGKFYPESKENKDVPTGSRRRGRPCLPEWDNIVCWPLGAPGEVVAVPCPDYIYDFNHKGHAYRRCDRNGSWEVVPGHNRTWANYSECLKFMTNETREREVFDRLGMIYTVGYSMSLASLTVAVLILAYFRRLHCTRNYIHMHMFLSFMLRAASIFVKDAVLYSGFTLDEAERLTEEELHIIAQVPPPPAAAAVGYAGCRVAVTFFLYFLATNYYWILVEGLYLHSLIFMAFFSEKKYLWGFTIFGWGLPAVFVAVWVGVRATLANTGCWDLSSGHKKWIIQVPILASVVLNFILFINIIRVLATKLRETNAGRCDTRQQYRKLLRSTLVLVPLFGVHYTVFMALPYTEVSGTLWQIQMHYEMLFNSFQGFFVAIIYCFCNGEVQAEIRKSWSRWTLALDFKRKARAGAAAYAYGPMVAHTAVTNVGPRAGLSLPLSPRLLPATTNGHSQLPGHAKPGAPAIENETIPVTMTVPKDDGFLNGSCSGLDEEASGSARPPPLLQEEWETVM
Kind of data set: Blood calcium and cAMP in knock-in mice with phosphorylation-deficient (PD) PTH receptor vs wild-type. The data set is classed as in vivo. How it is done:
The activity of SP-PTH-AAK (SEQ ID NO:4) was tested in “knock-in” mice that express a PD PTH receptor in place of the wild-type PTH receptor (Bounoutas et al., Endocrinology 147: 4674, 2006).
Blood cAMP levels were also compared between the two types of mice.

For `CC[C@H](C)[C@H](NC(=O)[C@H](CCC(=O)O)NC(=O)[C@H](CO)NC(=O)[C@@H](NC(=O)[C@@H](N)CO)C(C)C)C(=O)N[C@@H](CCC(N)=O)C(=O)N[C@@H](CC(C)C)C(=O)N[C@@H](CCSC)C(=O)N[C@@H](Cc1cnc[nH]1)C(=O)N[C@@H](CC(N)=O)C(=O)N[C@@H](CC(C)C)C(=O)NCC(=O)N[C@@H](CCCCN)C(=O)N[C@@H](Cc1cnc[nH]1)C(=O)N[C@@H](CC(C)C)C(=O)N[C@@H](CC(N)=O)C(=O)N[C@@H](CO)C(=O)N[C@@H](CCSC)C(=O)N[C@@H](CCC(=O)O)C(=O)N[C@@H](CCCN=C(N)N)C(=O)N[C@H](C(=O)N[C@@H](CCC(=O)O)C(=O)N[C@@H](Cc1c[nH]c2ccccc12)C(=O)N[C@@H](CC(C)C)C(=O)N[C@@H](CCCN=C(N)N)C(=O)N[C@@H](CCCCN)C(=O)N[C@@H](CCCCN)C(=O)N[C@@H](CC(C)C)C(=O)N[C@@H](CCC(N)=O)C(=O)N[C@@H](CC(=O)O)C(=O)N[C@H](C(=O)N[C@@H](Cc1cnc[nH]1)C(=O)N[C@@H](CC(N)=O)C(=O)N[C@@H](Cc1ccccc1)C(=O)O)C(C)C)C(C)C` [PTH(1-34), hPTH(1-34)OH, reference compound], in “in vivo”, the MRT (in general, a mean duration of stay, worked out from the concentration-time curve) is 11.4 min; the Vd – broadly, a proportionality between amount in the body and measured concentration, not a real space – is 0.211 L/kg; the clearance (as a rule, a measure of how efficiently the substance is removed, as volume per time) amounted to 18.5 mL/min/kg; the half-life (usually how long it takes for the measured level to halve) came to 7.78 min. In data set [1], this compound registered an AUCinf of 1315 pmol·min/mL and an AUClast of 1308 pmol·min/mL.

Consider `CC[C@H](C)[C@H](NC(=O)[C@H](CCC(=O)O)NC(=O)[C@H](C)NC(=O)[C@@H](NC(=O)[C@H](Cc1c[nH]cn1)NC(=O)[C@@H](NC(=O)[C@H](CCC(=O)O)NC(=O)[C@H](C)NC(=O)[C@@H](NC(=O)[C@H](CC(C)C)NC(=O)[C@H](Cc1c[nH]cn1)NC(=O)[C@H](Cc1c[nH]cn1)NC(=O)[C@H](CC(C)C)NC(=O)[C@H](Cc1ccccc1)NC(=O)[C@H](Cc1ccccc1)NC(=O)[C@H](CCCNC(=N)N)NC(=O)[C@H](CCCNC(=N)N)NC(=O)[C@H](CCCNC(=N)N)NC(=O)[C@H](CC(C)C)NC(=O)[C@H](CC(=O)O)NC(=O)[C@H](CCC(N)=O)NC(=O)[C@@H](NC(=O)[C@H](Cc1c[nH]c2ccccc12)NC(=O)[C@H](CCCCN)NC(=O)[C@H](C)NC(=O)[C@H](CCCCNC(=N)N)NC(=O)[C@H](CCC(N)=O)NC(=O)[C@H](Cc1c[nH]cn1)NC(=O)[C@H](CCSC)NC(=O)[C@H](CC(C)C)NC(=O)[C@H](CCC(N)=O)NC(=O)[C@@H](NC(=O)[C@H](CCC(=O)O)NC(=O)C(C)(C)NC(=O)[C@@H](NC(=O)[C@H](C)N)C(C)C)[C@@H](C)CC)[C@@H](C)CC)[C@@H](C)CC)[C@@H](C)CC)[C@@H](C)O)C(N)=O` [AIB-SP-PTH, [Ala^1,12,Aib^3,Gln^10,Har^11,Trp^14]PTH(1-14)/PTHrP(15-36)] (H-AV[Aib]EIQLMHQ[hArg]AKWIQDLRRRFFLHHLIAEIHTAEI-NH2; N-terminus assumed), for which the “blood calcium levels at later time points vs PTH(1-34) or vehicle” value in data set [2] is listed as “increased”. The “R0 binding at human PTH receptor as compared to PTH(1-34)” value on human PTHR1 (R0) (FIG. 5A) was “enhanced R^0 binding”. Moreover, the concentration for half-maximal inhibition (IC50) (usually the point on the concentration scale where inhibition reaches its midpoint) on human PTHR1 (R0) (R0 conformation, mean of 3 experiments, read-out: Binding human PTHR1 IC50 (Log M) R0 (converted)) is 1.82 nM. The “cAMP-stimulating activity after ligand wash-out” value in the data set with MC3T3-E1 cells [3] was “maintained cAMP-stimulating activity for longer periods of time than PTH(1-34)”. In addition, on rat PTHR1 (RG), the IC50 is 0.38 nM. For the same compound, in the data set on MC3T3-E1 cells [4], the EC50 (commonly the concentration at which the effect is half-maximal) worked out at 0.044 nM and the “cAMP MC3T3-E1 cells Emax (pmole/well)” value was 62.1 ± 13.3 pmole/well. Moreover, the “cAMP MC3T3-E1 cells EC50 (Log M)” value in the data set on MC3T3-E1 cells [4] (6 experiments) is recorded as −10.4 ± 0.1 Log M.

In the case of M-PTH(1-28), on PD PTH receptor (FIGS. 17A, 17B), the “increases in blood calcium levels in PD mice as compared to wild-type mice” value is “either reduced or eliminated”. Besides, on PD PTH receptor (FIGS. 18A, 18B), the “blood cAMP levels in PD mice as compared to wild-type mice” value was “increased in magnitude and prolonged in duration”.
